pIC50: −log10 of the molar value. Read-outs that look alike come from different tables or passages of the source.
Experiments:
[1] = prior art; cited from earlier work
[2] = prior art; cited from earlier work; remark: listed apart in the source
[3] = target: cardiac glycoside (CG) binding site (digitalis receptor) of heart muscle; experiment: 3H-ouabain radioligand binding assay (RBA); parameters: species or system dog; settings: for pIC50: cardiac receptor of heart muscle, membranes from dog myocardium; for pIC50 / IC50: read-out: binding / displacement potency in the 3H-ouabain RBA (IC50); for receptor potency relative to the aglycone: glucoside versus aglycone; for IC50: values in nM
Method: An extensive study has been conducted by the inventors with respect to a wide series of steroids of the pregnane and androstane type. The potencies of these steroids were determined in a ^3 H-ouabain radioligand binding assay (RBA). Past experience has indicated to the inventors that the potency of the steroids to displace the labelled cardiac glycoside (i.e. ouabain) in the assay parallel their biological activity, that is their cardiac glycoside-like activity in the ability to inhibit Na/K-ATPase and elicit characteristic cellular response.
Binding studies were carried out in a ^3 H-ouabain radioligand binding assay (RBA) generally as described by Chow et al in Br. J. Pharmac. (1979), 67, 345 to 352. The results obtained are set forth in the Examples below:
A number of progesterone derivatives, having a 17α-acetoxy group and various functions at C-3 and C-6, interact at the cardiac glycoside (CG) binding site, as measured by the RBA with membranes from dog myocardium. Experimental values are given in the Table of FIG. 4 and structures in FIG. 3. The inventors have carried out structure-activity studies concerned with modification of the A and B rings as they influence potency in the RBA. As may be seen from the data, some progesterone derivatives with 5α- or 5β-stereochemistry show receptor competing activity. Among the congeners, highest potency is associated with the presence of C-4 or C-4,6-unsaturation and a C-6 substituent (CH3, Cl, Br). The C-3 function may be carbonyl, 3β-hydroxy, 3β-acetoxy or β-D-glucoside when associated with C-4 or C-4,6 unsaturation. In compounds with other substituents that promote activity, C-6α-substitution with --CH3, --Cl or --Br strongly enhance activity, --F, --OCH3, carbonyl or the unsubstituted compound promotes weak binding, and --OC2 H5, --OAc, --OCOOCH3 or --OH eliminates binding activity. Receptor interaction with the double bond at C-4, but not C-5, appears to be particularly important for binding.

isolated heart muscle = experiment: cardiostimulation in isolated heart muscle
Description: Differences in toxicity, i.e. the tolerance to increasingly-greater dosage levels before the onset of arrhythmia, exist among the various steroid glycosides.

[4] = tested on: canine ventricular trabeculae muscle; experiment: contractile (inotropic) response of canine ventricular trabeculae muscle
[5] = intrarenal infusion: urine volume, sodium and potassium excretion; assay type: in vivo
Description: The effects of an intrarenal infusion of ouabain and 14β-hydroxyprogesterone glucoside were compared. […] This marked natriuresis and absence of kaliuresis by the cardiotonic pregnane has practical clinical implications. […]

Na/K-ATPase = settings: prior art; cited from earlier work
[6] = prior art; cited from earlier work; remark: listed apart in the source
[7] = listed as β-D-glucoside of 14β-hydroxyprogesterone

C[C@@H]1O[C@@H](O[C@H]2CC[C@@]3(C)[C@H](CC[C@@H]4[C@@H]3CC[C@]3(C)[C@@H]([C@@H](C)O)CC[C@]43N)C2)[C@H](O)[C@H](O)[C@H]1O [3β-rhamnosyloxy-14β-amino-5β-pregnane-20β-ol]
effect on cardiac contractility compared with digoxin [1]: superior, in terms of tolerance to higher dosage
potency compared with the cardiac glycosides [2]: as potent as the cardiac glycosides

CC(=O)[C@H]1CC[C@]2(O)[C@@H]3CC[C@@H]4CC(=O)CC[C@]4(C)[C@H]3CC[C@]12C [compound 3]
pIC50 [3]: 4.22
binding activity in the RBA, in words ([3]; qualitative statement): weaker than 14β-hydroxyprogesterone
cardiostimulation (isolated heart muscle): cardiostimulant

CC(=O)[C@H]1CC[C@]2(O)[C@@H]3CCC4=CC(=O)CC[C@]4(C)[C@H]3CC[C@]12C [compound 6, 14β-hydroxyprogesterone]
pIC50 [3]: 5.00
cardiostimulation (isolated heart muscle): elicits cardiostimulation

CC(=O)[C@H]1CC[C@]2(O)[C@@H]3CCC4=C[C@@H](O[C@@H]5O[C@H](CO)[C@@H](O)[C@H](O)[C@H]5O)CC[C@]4(C)[C@H]3CC[C@]12C [compound 8]
inotropic response ([4]; dose dependent): positive inotropic response
after contractions on rapid electrical stimulation (digitalis-like toxic response) ([4]; during peak inotropic response and subsequent depression): possible to elicit spontaneous after contraction(s)
contractile response at high concentrations ([4]; high concentrations): biphasic contractile response, an initial increase followed by a decrease
pIC50 [3]: 5.74
receptor potency relative to the aglycone ([3]; listed as 14β-OHP-glu): about 10 times
receptor potency relative to the aglycone [3, 7]: approximately ten
urine volume [5]: increased urine volume
potassium excretion ([5]; listed as 14β-OHP-glu): no influence on potassium excretion
sodium excretion ([5]; listed as 14β-OHP-glu): increased sodium excretion significantly
potassium excretion [5, 7]: little effect on potassium excretion
sodium excretion [5, 7]: increased sodium excretion

CC(=O)O[C@]1(C(C)=O)CC[C@H]2[C@@H]3C=C(Cl)C4=CC(=O)CC[C@]4(C)[C@H]3CC[C@@]21C [compound 20, 17α-acetoxy-6-chloropregna-4,6-diene-3,20-dione, reference compound]
pIC50 [3]: 6.30
potency in the RBA relative to ouabain ([3]; fraction of the potency of ouabain): 1/20
affinity / potency at Na/K-ATPase (Na/K-ATPase): high affinity
effect on cardiac contractility [6]: cardiodepression or decreased contractility

C[C@@H]1O[C@@H](O[C@H]2C[C@@H](O)[C@]3(CO)[C@H]4[C@H](O)C[C@]5(C)[C@@H](C6=CC(=O)OC6)CC[C@]5(O)[C@@H]4CC[C@]3(O)C2)[C@H](O)[C@H](O)[C@H]1O [ouabain, reference compound]
IC50 [3]: 14 nM
potassium excretion [5]: marked increase in potassium excretion
sodium excretion [5]: little or no change in sodium excretion
urine volume [5]: increased urine volume

C[C@@H]1O[C@@H](O[C@H]2CC[C@@]3(C)[C@H](CC[C@@H]4[C@@H]3CC[C@]3(C)[C@@H]([C@@H](C)O)CC[C@]43O)C2)[C@H](O)[C@H](O)[C@H]1O [α-L-rhamnose derivative, 14,20β-Dihydroxy-3β-(α-L-rhamnopyranosyloxy)-5β,14β-pregnane]
IC50 [3]: 80 nM

CC(=O)O[C@]1(C(C)=O)CC[C@H]2[C@@H]3C[C@H](C)C4=C[C@@H](O[C@@H]5O[C@H](CO)[C@@H](O)[C@H](O)[C@H]5O)CC[C@]4(C)[C@H]3CC[C@@]21C [β-D-glucoside, 17α-Acetoxy-6α-methyl-3-β-[β-D-(glucopyranosyl)oly]-pregn-4-en-20-one]
pIC50 [3]: 5.48
potassium excretion [5]: potassium sparing
sodium excretion [5]: sodium excreting

— patent publication US5144017A, “Compounds that bind to digitalis receptor” (University of Manitoba, priority 1988, dated 1992)
